The record followed here is patent US10669235B2, “Indole derivatives and their use as protein kinase inhibitors” (RESPIVERT LIMITED, priority 2016, dated 2020).

Where a name gives a salt, the structure may show the parent alone.

One data set can be described thus: PAMPA permeability assay. The data set is classed as in vitro ADME. As to conditions: pH 7, PAMPA; for Papp at 5 h, 10 µM: pH 7, 10 μM. A general note: PAMPA measures passive passage across an artificial lipid membrane.
Data set [1] deals with T1, PDGFRβ (Homo sapiens (Human), UniProt P09619). Description: PDGFRβ enzyme inhibition (ADP-Glo assay). Format: biochemical. The settings on record: mean, n = 2 (nintedanib n = 34). For orientation: ADP-Glo first removes unused ATP, then detects ADP through luciferase.
In the next data set the test system is MRC5 cells. Put plainly: Cell viability assay in MRC5 cells (MTT).
For data set [2], the target named is T1, PDGFRβ. Put plainly: PDGF-BB induced phosphorylation of PDGFRβ in fibroblasts (MRC5, HTRF). The data set is classed as cell-based. The settings on record: MRC5 cells, PDGFBB stimulation; read-out: PDGFBB-induced PDGFRβ phosphorylation in MRC5 cells (IC50). (In TR-FRET formats the signal depends on donor and acceptor labels being close together.)

T1 sequence (P09619 33-1106): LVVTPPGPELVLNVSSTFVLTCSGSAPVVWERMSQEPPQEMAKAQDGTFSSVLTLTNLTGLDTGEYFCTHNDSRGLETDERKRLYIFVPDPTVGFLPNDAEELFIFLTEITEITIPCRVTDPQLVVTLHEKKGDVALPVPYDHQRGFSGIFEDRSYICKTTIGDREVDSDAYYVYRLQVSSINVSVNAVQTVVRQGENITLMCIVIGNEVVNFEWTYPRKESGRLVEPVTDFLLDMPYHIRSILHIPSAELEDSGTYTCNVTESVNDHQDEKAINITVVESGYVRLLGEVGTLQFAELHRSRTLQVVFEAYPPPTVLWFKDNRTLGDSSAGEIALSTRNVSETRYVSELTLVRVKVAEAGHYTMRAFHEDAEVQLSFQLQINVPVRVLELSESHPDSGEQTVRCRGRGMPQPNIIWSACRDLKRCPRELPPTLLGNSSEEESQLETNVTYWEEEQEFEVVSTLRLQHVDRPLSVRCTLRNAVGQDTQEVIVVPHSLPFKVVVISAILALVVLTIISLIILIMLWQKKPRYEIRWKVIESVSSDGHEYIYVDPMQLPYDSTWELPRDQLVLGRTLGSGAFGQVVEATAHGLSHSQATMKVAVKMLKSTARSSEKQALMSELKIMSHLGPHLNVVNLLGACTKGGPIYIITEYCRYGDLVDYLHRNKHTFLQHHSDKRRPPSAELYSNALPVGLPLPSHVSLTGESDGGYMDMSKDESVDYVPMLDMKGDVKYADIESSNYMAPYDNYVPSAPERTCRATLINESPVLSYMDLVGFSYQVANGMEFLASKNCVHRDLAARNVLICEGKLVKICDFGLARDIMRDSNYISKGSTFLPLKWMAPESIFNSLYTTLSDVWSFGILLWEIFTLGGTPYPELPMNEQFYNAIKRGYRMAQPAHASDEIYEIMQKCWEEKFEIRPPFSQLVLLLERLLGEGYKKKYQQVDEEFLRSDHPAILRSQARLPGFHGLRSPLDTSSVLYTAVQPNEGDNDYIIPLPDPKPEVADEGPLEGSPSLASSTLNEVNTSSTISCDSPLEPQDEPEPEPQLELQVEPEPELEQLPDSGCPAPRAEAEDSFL

In the case of `COC(=O)c1cc2c(cc1C)/C(=C(/Nc1ccc(C(=O)N(CCO)CCN(C)C)cc1)c1ccccc1)C(=O)N2` [Example 32, (Z)-Methyl 3-(((4-((2-(dimethylamino)ethyl)(2-hydroxyethyl)carbamoyl)phenyl)amino)(phenyl)methylene)-5-methyl-2-oxoindoline-6-carboxylate, 0.3 formate], in “PAMPA permeability assay”, the recovery at 5 hr, 10 μM worked out at 59.6% and the Papp (commonly a coefficient for how fast a substance crosses the barrier) at 5 h, 10 µM was found to be 0.0217 ×10⁻⁶ cm/s. The Ki – broadly, a measure of affinity in units of concentration, obtained from inhibition or displacement – on PDGFRβ [1] was 5.02 nM. Further, in the data set on MRC5 cells, the “Cell viability at 100 nM (%)” value amounted to 99.3%, the “Cell viability at 300 nM (%)” value amounted to 129.3% and the “Cell viability at 1000 nM (%)” value came out at 49.4%. Moreover, the IC50 (commonly the concentration that gives 50% inhibition) at PDGFRβ [2] stood at 4.53 nM.

In the data set “PAMPA permeability assay”, `COC(=O)c1cc2c(cc1C)/C(=C(/Nc1ccc(C(=O)N3CC[C@@H](CN(C)C)[C@H](O)C3)cc1)c1ccccc1)C(=O)N2` [Example 33, (Z)-Methyl 3-(((4-((3S,4S)-4-((dimethylamino)methyl)-3-hydroxypiperidine-1-carbonyl)phenyl)amino)(phenyl)methylene)-5-methyl-2-oxoindoline-6-carboxylate] returned a recovery at 5 hr, 10 μM of 69.1% and a Papp at 5 h, 10 µM of 0.0269 ×10⁻⁶ cm/s. Moreover, affinity at PDGFRβ [1] was put at a Ki of 6.82 nM. Besides, in the data set on MRC5 cells, the “Cell viability at 100 nM (%)” value was found to be 86.6%, the “Cell viability at 300 nM (%)” value turned out to be 63.1% and the “Cell viability at 1000 nM (%)” value came to 19.8%. In addition, at PDGFRβ [2], the IC50 turned out to be 2.32 nM.

In the data set “PAMPA permeability assay”, `CNC(=O)CN1CCN(C(=O)c2ccc(N/C(=C3\C(=O)Nc4cc(C(=O)OC)c(C)cc43)c3ccccc3)cc2)CC1` [Example 11, (Z)-Methyl 5-methyl-3-(((4-(4-(2-(methylamino)-2-oxoethyl)piperazine-1-carbonyl)phenyl)amino) (phenyl)methylene)-2-oxoindoline-6-carboxylate] came in with a recovery at 5 hr, 10 μM of 93.2% and an apparent permeability (Papp) at 5 h, 10 µM of 0.0479 ×10⁻⁶ cm/s. On PDGFRβ [1], this molecule displayed a Ki of 10.6 nM. Further, in the data set on MRC5 cells, the “Cell viability at 100 nM (%)” value was determined as 82%, the “Cell viability at 300 nM (%)” value is on record as 67.8% and the “Cell viability at 1000 nM (%)” value is reported as 28.5%. Further, at PDGFRβ [2], the IC50 came out at 2.75 nM.

In “PAMPA permeability assay”, `COC(=O)c1cc2c(cc1C)/C(=C(/Nc1ccc(C(=O)N3CCC(O)(CN4CCOCC4)CC3)cc1)c1ccccc1)C(=O)N2` [Example 45, (Z)-Methyl-3-(((4-(4-hydroxy-4-(morpholinomethyl)piperidine-1-carbonyl)phenyl)amino)(phenyl)methylene)-5-methyl-2-oxoindoline-6-carboxylate] returned a recovery at 5 hr, 10 μM of 77% and a Papp at 5 h, 10 µM of 0.0893 ×10⁻⁶ cm/s. The same molecule yielded a Ki at PDGFRβ [1] of 15.1 nM. In the data set with MRC5 cells, the “Cell viability at 100 nM (%)” value turned out to be 80.1%, the “Cell viability at 300 nM (%)” value was 71.7% and the “Cell viability at 1000 nM (%)” value was determined as 62.8%. Further, the IC50 on PDGFRβ [2] amounted to 2.42 nM.

In the data set “PAMPA permeability assay”, `COC(=O)c1cc2c(cc1C)/C(=C(/Nc1ccc(C(=O)N3CCC(CO)(CN(C)C)CC3)cc1)c1ccccc1)C(=O)N2` [Example 38, (Z)-Methyl-3-(((4-(4-((dimethylamino)methyl)-4-(hydroxymethyl)piperidine-1-carbonyl)phenyl)amino)(phenyl)methylene)-5-methyl-2-oxoindoline-6-carboxylate] gave a recovery at 5 hr, 10 μM of 70.3% and a Papp at 5 h, 10 µM of 0.0269 ×10⁻⁶ cm/s. This molecule also displayed a Ki at PDGFRβ [1] of 4.79 nM. In the data set with MRC5 cells, the “Cell viability at 100 nM (%)” value was determined as 70.7%, the “Cell viability at 300 nM (%)” value is given as 63% and the “Cell viability at 1000 nM (%)” value amounted to 4.2%. Moreover, the IC50 on PDGFRβ [2] was determined as 1.7 nM.

Take `COC(=O)c1cc2c(cc1C)/C(=C(/Nc1ccc(C(=O)N3CCN(CCO)CC3)cc1)c1ccccc1)C(=O)N2` [Example 19, (Z)-Methyl 3-(((4-(4-(2-hydroxyethyl)piperazine-1-carbonyl)phenyl)amino)(phenyl)methylene)-5-methyl-2-oxoindoline-6-carboxylate, 0.5 formate]: in the data set “PAMPA permeability assay”, the recovery at 5 hr, 10 μM stood at 61.8% and the Papp at 5 h, 10 µM was 0.589 ×10⁻⁶ cm/s. The affinity at PDGFRβ [1], expressed as Ki, was 8.79 nM. In the data set with MRC5 cells, the “Cell viability at 100 nM (%)” value came to 85.5%, the “Cell viability at 300 nM (%)” value was found to be 71.8% and the “Cell viability at 1000 nM (%)” value was determined as 21.9%. Further, the IC50 at PDGFRβ [2] came out at 5.04 nM.

In “PAMPA permeability assay”, `COC(=O)c1cc2c(cc1C)/C(=C(/Nc1ccc(C(=O)NCCCN(C)C)cc1)c1ccccc1)C(=O)N2` [Example 22, (Z)-Methyl 3-(((4-((3-(dimethylamino)propyl)carbamoyl)phenyl)amino)(phenyl)methylene)-5-methyl-2-oxoindoline-6-carboxylate, 0.5 formate] gave a recovery at 5 hr, 10 μM of 101% and a Papp at 5 h, 10 µM of 0.046 ×10⁻⁶ cm/s. At PDGFRβ [1], the Ki worked out at 9.29 nM. Besides, in the data set with MRC5 cells, the “Cell viability at 100 nM (%)” value stood at 72.3%, the “Cell viability at 300 nM (%)” value worked out at 58.8% and the “Cell viability at 1000 nM (%)” value is given as 48.8%. For the same molecule, the IC50 at PDGFRβ [2] was 12.3 nM.

Consider `COC(=O)c1cc2c(cc1C)/C(=C(/Nc1ccc(C(=O)NCCC(=O)N3CCN(C)CC3)cc1)c1ccccc1)C(=O)N2` [Example 10, (Z)-Methyl 5-methyl-3-(((4-((3-(4-methylpiperazin-1-yl)-3-oxopropyl)carbamoyl)phenyl)amino) (phenyl)methylene)-2-oxoindoline-6-carboxylate], for which, in the data set “PAMPA permeability assay”, the recovery at 5 hr, 10 μM was determined as 70.4% and the Papp at 5 h, 10 µM is 0.0428 ×10⁻⁶ cm/s. Also, the Ki on PDGFRβ [1] amounted to 12.7 nM. Moreover, in the data set with MRC5 cells, the “Cell viability at 100 nM (%)” value was 85%, the “Cell viability at 300 nM (%)” value was found to be 118.9% and the “Cell viability at 1000 nM (%)” value amounted to 108.4%. Further, on PDGFRβ [2], the IC50 amounted to 15.9 nM.

Take `COC(=O)c1cc2c(cc1C)/C(=C(/Nc1ccc(S(=O)(=O)NCCN(C)C)cc1)c1ccccc1)C(=O)N2` [Example 25, (Z)-Methyl 3-(((4-(N-(2-(dimethylamino)ethyl)sulfamoyl)phenyl)amino)(phenyl)methylene)-5-methyl-2-oxoindoline-6-carboxylate, formate]: in the data set “PAMPA permeability assay”, the recovery at 5 hr, 10 μM came out at 105% and the Papp at 5 h, 10 µM turned out to be 11 ×10⁻⁶ cm/s. The molecule also returned a Ki at PDGFRβ [1] of 11.7 nM. Moreover, in the data set on MRC5 cells, the “Cell viability at 100 nM (%)” value is on record as 83.2%, the “Cell viability at 300 nM (%)” value amounted to 74.7% and the “Cell viability at 1000 nM (%)” value turned out to be 55.4%. Further, on PDGFRβ [2], the IC50 is 24.2 nM.

In the data set “PAMPA permeability assay”, `COCCN1CCC(NC(=O)c2ccc(N/C(=C3\C(=O)Nc4cc(C(=O)OC)c(C)cc43)c3ccccc3)cc2)CC1` [Example 20, (Z)-Methyl 3-(((4-((1-(2-methoxyethyl)piperidin-4-yl)carbamoyl)phenyl)amino)(phenyl)methylene)-5-methyl-2-oxoindoline-6-carboxylate] returned a recovery at 5 hr, 10 μM of 104% and a Papp at 5 h, 10 µM of 0.0165 ×10⁻⁶ cm/s. The affinity on PDGFRβ [1], expressed as Ki, was 19.1 nM. Moreover, in the data set with MRC5 cells, the “Cell viability at 100 nM (%)” value came out at 92.6%, the “Cell viability at 300 nM (%)” value is on record as 91.7% and the “Cell viability at 1000 nM (%)” value worked out at 87.2%. The concentration for half-maximal inhibition (IC50) at PDGFRβ [2] amounted to 38.9 nM.

In “PAMPA permeability assay”, `COC(=O)c1cc2c(cc1C)/C(=C(/Nc1ccc(C(=O)N[C@H]3CCCN(C)C3)cc1)c1ccccc1)C(=O)N2` [Example 27, (S,Z)-Methyl 5-methyl-3-(((4-((1-methylpiperidin-3-yl)carbamoyl)phenyl)amino)(phenyl)methylene)-2-oxoindoline-6-carboxylate, 0.5 formate] gave a recovery at 5 hr, 10 μM of 54.3% and a Papp at 5 h, 10 µM of 16.8 ×10⁻⁶ cm/s. This molecule displayed a Ki at PDGFRβ [1] of 18 nM. In the data set with MRC5 cells, the “Cell viability at 100 nM (%)” value was found to be 106.5%, the “Cell viability at 300 nM (%)” value was 112.6% and the “Cell viability at 1000 nM (%)” value was 82.9%. Besides, the IC50 on PDGFRβ [2] amounted to 43 nM.

In the data set “PAMPA permeability assay”, `COC(=O)c1cc2c(cc1C)/C(=C(/Nc1ccc(C(=O)NCCN3CCCN(C(C)=O)CC3)cc1)c1ccccc1)C(=O)N2` [Example 34, (Z)-Methyl 3-(((4-((2-(4-acetyl-1,4-diazepan-1-yl)ethyl)carbamoyl)phenyl)amino)(phenyl)methylene)-5-methyl-2-oxoindoline-6-carboxylate] displayed a recovery at 5 hr, 10 μM of 41.1% and a Papp at 5 h, 10 µM of 0.00748 ×10⁻⁶ cm/s. Also, the Ki on PDGFRβ [1] stood at 14.4 nM. Further, in the data set on MRC5 cells, the “Cell viability at 100 nM (%)” value was 82.9%, the “Cell viability at 300 nM (%)” value is given as 74.4% and the “Cell viability at 1000 nM (%)” value was 16.2%. In addition, the IC50 on PDGFRβ [2] came to 4.71 nM.

Take `COC(=O)c1cc2c(cc1C)/C(=C(/Nc1ccc(C(=O)NC3CCN(CCO)CC3)cc1)c1ccccc1)C(=O)N2` [Example 13, (Z)-Methyl 3-(((4-((1-(2-hydroxyethyl)piperidin-4-yl)carbamoyl)phenyl)amino) (phenyl)methylene)-5-methyl-2-oxoindoline-6-carboxylate]: in “PAMPA permeability assay”, the recovery at 5 hr, 10 μM amounted to 76.3% and the Papp at 5 h, 10 µM was 0.0439 ×10⁻⁶ cm/s. The same molecule registered a Ki on PDGFRβ [1] of 10.4 nM. Moreover, in the data set on MRC5 cells, the “Cell viability at 100 nM (%)” value amounted to 84.3%, the “Cell viability at 300 nM (%)” value stood at 93.2% and the “Cell viability at 1000 nM (%)” value is on record as 102.1%. Also, the IC50 on PDGFRβ [2] was 1.25 nM.

In “PAMPA permeability assay”, `COC(=O)c1cc2c(cc1C)/C(=C(/Nc1ccc(C(=O)N3CCC(O)(CN4CCCC4)CC3)cc1)c1ccccc1)C(=O)N2` [Example 37, (Z)-Methyl-3-(((4-(4-hydroxy-4-(pyrrolidin-1-ylmethyl)piperidine-1-carbonyl)phenyl)amino)(phenyl)methylene)-5-methyl-2-oxoindoline-6-carboxylate, formate] yielded a recovery at 5 hr, 10 μM of 68.2% and a Papp at 5 h, 10 µM of 0.0542 ×10⁻⁶ cm/s. Moreover, the Ki on PDGFRβ [1] was determined as 7.54 nM. Further, in the data set with MRC5 cells, the “Cell viability at 100 nM (%)” value turned out to be 93.6%, the “Cell viability at 300 nM (%)” value is listed as 83.4% and the “Cell viability at 1000 nM (%)” value was determined as 18.4%. In addition, the IC50 at PDGFRβ [2] stood at 5.28 nM.
